One assay has as its system KARN cells (Jurkat 2C4). The assay is described as follows: cells. Format: cell-based. As to the method:
KARN cells (Jurkat 2C4) were licensed from the laboratory of Dr. John Karn, Case Western Reserve University, School of Medicine. […] An atmosphere of 5% CO2 and 90% humidity was used for all culture work.
Day 1: After the 3-4 day growth period, the cells were transferred from the T175 flask to a 50 ml conical tube and gently pelleted at 1000 rpm for 5 minutes. […] These flasks were returned to the incubator.
Day 2: Cell Preparation: The next day, the cells were transferred from each T175 flask to an individual 50 ml conical tube and gently pelleted at 1000 rpm for 5 minutes. The cells were gently resuspended in assay media (30 ml) and pelleted again. […] The cells were counted using the ViCell (Beckman Coulter) and diluted as necessary. […] The plates were covered and returned to the incubator prior to compound addition.
The reference compounds, DMSO and SAHA were then added to the compound plate. […] The final high concentration for SAHA and the test compounds in the assays was 40 μM. The final DMSO concentration in all wells was 0.4%. The minimal induction reference compound used was DMSO and the maximal induction reference compound used was SAHA (2 μM final concentration in the assay).
Day 3: The luciferase detection reagent was prepared by transferring the contents of one bottle of Steady-Glo buffer to one bottle of Steady-Glo aubstrate (Steady-Glo Luciferase Assay System, Promega, catalog number E2520), followed by gently mixing until the substrate was thoroughly dissolved and the solution was equilibrated to room temperature. […] The Steady-Glo Reagent was added to the plates (30 μl/well), which were then covered with a black lid and incubated for 10 minutes at room temperature. The plates were then read for luminescence on an Envision (Perkin Elmer) using the ultrasensitive mode (US LUM), […] and 384-well aperture. Luminescence counts in the DMSO reference wells were considered as 0% induction, while those in the 2 μM SAHA reference wells were considered as 100% induction. Dose response curves were plotted as test compound concentration (X-axis) vs. percent activation (Y-axis) using a 4-parameter fit based on the Levenberg-Marquardt algorithm.

For the next assay, the target named is T1, HDAC6 (Homo sapiens, UniProt Q9UBN7).
T1 sequence (Q9UBN7 1-1215): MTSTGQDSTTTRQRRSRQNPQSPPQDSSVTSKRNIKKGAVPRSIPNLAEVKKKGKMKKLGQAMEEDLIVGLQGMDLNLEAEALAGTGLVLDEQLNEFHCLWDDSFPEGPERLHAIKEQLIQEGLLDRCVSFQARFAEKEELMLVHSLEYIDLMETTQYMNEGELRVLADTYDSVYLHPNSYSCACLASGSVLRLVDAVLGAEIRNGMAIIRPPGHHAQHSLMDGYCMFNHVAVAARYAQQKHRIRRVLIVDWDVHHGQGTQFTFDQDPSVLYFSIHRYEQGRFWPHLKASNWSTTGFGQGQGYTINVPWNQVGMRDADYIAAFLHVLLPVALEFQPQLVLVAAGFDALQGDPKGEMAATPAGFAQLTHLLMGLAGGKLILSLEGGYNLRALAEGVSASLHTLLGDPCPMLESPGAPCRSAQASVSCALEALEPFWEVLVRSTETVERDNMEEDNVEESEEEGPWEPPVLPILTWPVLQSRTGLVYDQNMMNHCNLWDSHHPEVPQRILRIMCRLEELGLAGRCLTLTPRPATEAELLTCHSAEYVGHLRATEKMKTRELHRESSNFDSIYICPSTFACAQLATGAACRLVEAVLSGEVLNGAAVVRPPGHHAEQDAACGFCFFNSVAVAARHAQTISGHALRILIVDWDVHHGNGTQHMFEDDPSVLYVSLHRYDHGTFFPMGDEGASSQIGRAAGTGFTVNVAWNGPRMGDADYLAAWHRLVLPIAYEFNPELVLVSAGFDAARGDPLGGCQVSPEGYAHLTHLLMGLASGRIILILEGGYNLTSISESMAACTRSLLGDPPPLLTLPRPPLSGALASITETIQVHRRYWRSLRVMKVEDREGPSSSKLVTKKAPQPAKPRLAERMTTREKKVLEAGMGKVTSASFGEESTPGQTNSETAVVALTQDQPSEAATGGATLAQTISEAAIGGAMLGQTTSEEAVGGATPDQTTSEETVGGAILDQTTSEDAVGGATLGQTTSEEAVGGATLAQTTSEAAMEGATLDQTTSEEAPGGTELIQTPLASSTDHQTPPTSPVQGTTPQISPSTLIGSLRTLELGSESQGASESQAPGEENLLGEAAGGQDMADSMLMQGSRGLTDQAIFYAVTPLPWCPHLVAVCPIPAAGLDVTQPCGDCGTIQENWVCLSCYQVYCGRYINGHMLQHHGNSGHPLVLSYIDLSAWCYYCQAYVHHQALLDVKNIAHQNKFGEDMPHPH
The assay can be described thus: Human HDAC enzyme inhibitor Fluor-de-Lys assay, HDAC6. In kind it is biochemical. As to the method: (§1) Human HDAC Enzyme Inhibitor Fluor-De-Lys Assay
(§2) Recombinant human HDAC8 (BML-SE145-0100) and HDAC10 (BML-SE559-0050) enzymes, HDAC substrates BML-KI104 and BML-KI178, and HDAC developer solutions BML-KI105 and BML-KI176 were purchased from Enzo Life Sciences. […] HDAC inhibitor suberoylanilide hydroxamic acid (SAHA) was obtained from Indofine and trichostatin A (TSA) was obtained from Sigma-Aldrich.
(§3) The histone deacetylase activities of HDAC1, HDAC2, HDAC3, HDAC6, and HDAC8 were measured in modified FLUOR DE LYS assays in 384-well format. In this assay, HDAC enzymes are initially incubated with an ε-acetyl (or -trifluoroacetyl)-L-lysine-containing substrate with a C-terminal amide having aminomethylcoumarin as the amine component. HDACs cleave the ε-acetyl group, rendering the resulting product susceptible to AMC cleavage by trypsin. The released AMC is then detected by its fluorescence.
(§4) The HDAC3/SMRT assay employed buffer B, consisting of 20 mM HEPES, pH 8.0, 1 mM MgCl2, 50 mM NaCl, 2.7 mM KCl, 0.05% BSA, 0.005% Tween 20, and 10 μM IP4. […] The HDAC8 assay employed buffer D, consisting of 20 mM HEPES, pH 8.0, 1 mM MgCl2, 100 mM NaCl, 20 mM KCl, 0.10% n-octyl-β-D-glucoside (Anatrace) and 0.05% BSA. All steps were performed at room temperature (23° C.). The assay was performed by pre-incubating serial dilutions of test compounds with the target HDAC prior to initiation with substrate. Each compound was titrated in a 10-point dose response, using a 1:3 fold dilution scheme, with 0.15 ul of solution added by ECH0555 to the plate, followed by the addition of 20 μl of the appropriate HDAC isoform diluted in appropriate assay buffer. […] Final conditions used for each assay were: 1. HDAC 1, 0.3 nM total enzyme, 20 μM substrate BML-KI104; 2. […] HDAC 3/SMRT, 0.3 nM total enzyme, 20 μM substrate BML-KI104; 4. […] The reactions were stopped and developed by addition of 30 ul of HDAC developer solution containing a saturating level of HDAC inhibitor as follows: 1.

The target of another assay is T2, Recombinant human HDAC8 (Homo sapiens, UniProt Q9BY41).
T2 construct: purchased Enzo Life Sciences BML-SE145-0100
T2 sequence (Q9BY41 1-377): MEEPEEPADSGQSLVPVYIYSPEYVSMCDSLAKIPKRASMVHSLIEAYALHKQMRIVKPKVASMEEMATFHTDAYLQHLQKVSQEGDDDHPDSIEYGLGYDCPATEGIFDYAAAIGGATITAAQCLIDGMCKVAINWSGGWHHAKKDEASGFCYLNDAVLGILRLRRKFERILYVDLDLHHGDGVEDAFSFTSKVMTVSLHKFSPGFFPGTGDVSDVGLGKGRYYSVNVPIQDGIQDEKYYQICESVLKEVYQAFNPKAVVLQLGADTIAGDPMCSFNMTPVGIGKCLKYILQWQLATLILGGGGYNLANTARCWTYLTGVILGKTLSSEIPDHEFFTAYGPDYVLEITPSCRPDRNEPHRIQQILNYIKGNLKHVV
The assay can be described thus: Human HDAC enzyme inhibitor Fluor-de-Lys assay, HDAC8. Format: biochemical. The protocol: as §1, §2, §3, §4

[1] abbreviates: Homo sapiens, Jurkat, read-out: Karn EC50 (nM) 0.1% NHS, 0.1% normal human serum.
[2] abbreviates: Homo sapiens, Jurkat, read-out: Karn EC50 (nM) 5% NHS, 5% normal human serum.
Setting [3] is: Homo sapiens, Jurkat, read-out: Karn EC50 (nM) 0.1% NHS, 0.1% normal human serum, luciferase induction, 100% = 2 μM SAHA.
Where [4] appears, read: Homo sapiens, Jurkat, read-out: Karn EC50 (nM) 5% NHS, 5% normal human serum, luciferase induction, 100% = 2 μM SAHA.
Setting [5] is: recombinant human HDAC8, Fluor-de-Lys assay.

Where two headings read alike, the source gives them in different places.

With `CCC(=O)CCCCC[C@H](NC(=O)[C@H]1CC12CCN(C)CC2)c1ncc(-c2cccnc2OC)[nH]1` [Compound 102], the EC50 with KARN cells (Jurkat 2C4) (setting [1]) was found to be 290 nM; in the assay on KARN cells (Jurkat 2C4) (setting [2]), 301 nM. In addition, the concentration for half-maximal inhibition (IC50) at HDAC6 amounted to 1950 nM; at Recombinant human HDAC8, 3260 nM.
`CCC(=O)CCCCC[C@H](NC(=O)[C@H]1CC12CCN(C(N)=O)CC2)c1ncc(-c2cc3ccccc3nc2OC)[nH]1` (single isomer, unassigned) [Compound 319]: the EC50 in the assay with KARN cells (Jurkat 2C4) (setting [3]) is 1560 nM; in the assay with KARN cells (Jurkat 2C4) (setting [4]), 9850 nM. The IC50 at HDAC6 (HDAC6, Fluor-de-Lys assay) was 1170 nM; on Recombinant human HDAC8 (setting [5]), 2270 nM.
The corresponding values for `CCC(=O)CCCCC[C@H](NC(=O)[C@@H]1C[C@]12CCN(C)C2)c1ncc(-c2cc3ccccc3nc2OC)[nH]1` [Compound 329] are 262 nM, 1140 nM, above 150 nM and 7040 nM.
Turning to `CCC(=O)CCCCC[C@H](NC(=O)[C@H]1CC12CCN(C)CC2)c1ncc(-c2cc3ncccc3nc2OC)[nH]1` [Compound 142], the EC50 in the assay on KARN cells (Jurkat 2C4) (setting [1]) was found to be 311 nM; in the assay on KARN cells (Jurkat 2C4) (setting [2]), 544 nM. The IC50 at HDAC6 worked out at 3670 nM; on Recombinant human HDAC8 it was 5120 nM.
As for `CCC(=O)CCCCC[C@H](NC(=O)C1CC2(CCN(CC)CC2)C1)c1ncc(-c2cc3ccccc3nc2OC)[nH]1` [Compound 278], the results for the concentration giving a half-maximal response (EC50) in the assay on KARN cells (Jurkat 2C4) (setting [3]) and in the assay with KARN cells (Jurkat 2C4) (setting [4]) were 166 nM and 1000 nM, respectively. Besides, the concentration for half-maximal inhibition (IC50) against HDAC6 (HDAC6, Fluor-de-Lys assay) was 479 nM; at Recombinant human HDAC8 (setting [5]), 980 nM.
In the case of `CCC(=O)CCCCC[C@H](NC(=O)C1CC12CCN(C)CC2)c1ncc(-c2cc3ccccc3nc2OC)[nH]1` (stereo partly drawn) [Compound 313, N—((S)-1-(5-(2-methoxyquinolin-3-yl)-1H-imidazol-2-yl)-7-oxononyl)-6-methyl-6-azaspiro[2.5]octane-1-carboxamide], the EC50 in the assay on KARN cells (Jurkat 2C4) (setting [3]) came out at 57 nM; in the assay with KARN cells (Jurkat 2C4) (setting [4]) it was 272 nM. In addition, the IC50 at HDAC6 (HDAC6, Fluor-de-Lys assay) is 246 nM; at Recombinant human HDAC8 (setting [5]) it was 3020 nM.
The corresponding values for `CCC(=O)CCCCC[C@H](NC(=O)[C@H]1CC12CCN(C(C)C)CC2)c1ncc(-c2cc3ccccc3nc2OC)[nH]1` [Compound 337] are 32 nM, 57 nM, 160 nM and 5660 nM.
Take `CCC(=O)CCCCC[C@H](NC(=O)C1CC12CCC(N(C)C)CC2)c1ncc(-c2cc3ccccc3nc2OC)[nH]1` (single isomer, unassigned) [Compound 128]: the EC50 with KARN cells (Jurkat 2C4) (read-out: Karn EC50 (nM) 0.1% NHS, 0.1% normal human serum) was 442 nM; in the assay on KARN cells (Jurkat 2C4) (read-out: Karn EC50 (nM) 5% NHS, 5% normal human serum), 1140 nM. For the same compound, the figures for the IC50 at HDAC6 and on Recombinant human HDAC8 were 759 nM and 5580 nM, respectively.
Regarding `CCC(=O)CCCCC[C@H](NC(=O)[C@H]1CC12CCN(CC)CC2)c1ncc(-c2cc3ccccc3nc2OC)o1` [Compound 124], the EC50 was determined as 111 nM with KARN cells (Jurkat 2C4) (setting [1]) and 151 nM in the assay with KARN cells (Jurkat 2C4) (setting [2]). Moreover, the IC50 on HDAC6 is 137 nM; on Recombinant human HDAC8 it was 16000 nM.
In the case of `CCC(=O)CCCCC[C@H](NC(=O)[C@@H]1CC12CCN(C)CC2)c1ncc(-c2cc3ccccc3nc2O)[nH]1` (single isomer, unassigned) [Compound 324], the figures for the 50% effective concentration (EC50) in the assay with KARN cells (Jurkat 2C4) (setting [3]) and with KARN cells (Jurkat 2C4) (setting [4]) were 1170 nM and 1210 nM, respectively.
For `CCC(=O)CCCCC[C@H](NC(=O)[C@H]1CC12CCN(C)CC2)c1ncc(-c2cc3ccccc3nc2O)[nH]1` (single isomer, unassigned) [Compound 325], in that order: 154 nM and 216 nM.
Turning to `CCC(=O)CCCCC[C@H](NC(=O)[C@H]1C[C@]12CCN(C)C2)c1ncc(-c2cc3ccccc3nc2OC)[nH]1` [Compound 327], the EC50 in the assay on KARN cells (Jurkat 2C4) (setting [3]) came out at 73 nM; in the assay with KARN cells (Jurkat 2C4) (setting [4]), 232 nM. The IC50 on Recombinant human HDAC8 (setting [5]) worked out at 3870 nM.
Turning to `CCC(=O)CCCCC[C@H](NC(=O)[C@@H]1CC12CCN(C)CC2)c1ncc(-c2ccc3ncccc3c2)[nH]1` [Compound 281], the concentration giving a half-maximal response (EC50) in the assay with KARN cells (Jurkat 2C4) (setting [3]) was 2140 nM; with KARN cells (Jurkat 2C4) (setting [4]) it was 2170 nM.
For the compound `CCC(=O)CCCCC[C@H](NC(=O)[C@H]1CC12CCN(C)CC2)c1ncc(-c2ccc3ncccc3c2)[nH]1` [Compound 282], the EC50 with KARN cells (Jurkat 2C4) (read-out: Karn EC50 (nM) 0.1% NHS, 0.1% normal human serum, luciferase induction, 100% = 2 μM SAHA) was 294 nM; in the assay with KARN cells (Jurkat 2C4) (read-out: Karn EC50 (nM) 5% NHS, 5% normal human serum, luciferase induction, 100% = 2 μM SAHA), 247 nM.

The values above are taken from patent US12590099B2, “Inhibitors of histone deacetylase useful for the treatment or prevention of HIV infection” (Merck Sharp & Dohme LLC, priority 2018, dated 2026).
